# Peptide text beside a SMILES is read from it.
# What was measured:
# [1] = test system: immunologically naïve mice; experiment: tolerability and immunogenicity study in immunologically naive mice; conditions: for clinical findings / tolerability: 1 mg/kg bw IV, monthly administrations for 6 months
# Protocol: BALB/c mice were adapted for at least one week to start experiments at the age of 12 weeks. Animals were kept as described before. […] Peptides (either 1 mg/kg body weight or NaCl vehicle control) were given by IV injection into a tail vein of these naïve mice (n=5 per group), and then continued at 4-weekly intervals for 6 months, as described before for the therapeutic study in immunized mice. Serum samples were taken at identical intervals.
# 1) “3rd generation assay”: Antibodies against TSHR were detected by a commercially available 3rd generation enzyme immunoassay provided by RSR Limited, Avenue Park, Pentwyn, Cardiff, U.K., in which the of the human Graves patient-derived M22 monoclonal antibody and serum antibodies compete for binding sites on immobilized TSHR. […] The assay was performed using 30 μl 1:10 (PBS) diluted serum in at least double determination according to the manufacturer's instructions.
# [2] = test system: CHO cells expressing the human TSHR; experiment: capacity of serum anti-TSHR antibodies from treated mice to stimulate cAMP in test cells; design: species or system BALB/c mice; conditions: serum of in vivo treated Ad-TSHR-immunized mice, 1 mg/kg IV 4-weekly
# Protocol: The measurements were carried out in Ad-TSHR-immunized mice treated by either 4-weekly injections with vehicle (0.9% NaCl, “Graves' no therapy”, n=25 mice), or administrations of 1 mg/kg body weight of peptide of the invention 836 (12 mice), or of peptide 829 (13 mice), or TSHR-Fc (18 mice), or of control peptide 835 (13 mice). In addition, age-matched immunologically naïve unimmunized mice (“healthy”, 19 animals) were investigated. Data are represented as mean±SEM. Differences between groups were tested by AVOVA followed by post hoc LSD testing.**p<0.005 compared to the TSHR-immunized group treated with only NaCl (“Graves' no therapy”). […]
# Anti-TSHR autoantibody titers and potency of antibodies to stimulate TSHR-dependent cAMP levels in test cells were determined before start of immunisation (basal value), 56 days after first immunisation, 133 days after first immunisation, and 189 days after first immunisation, and at the end of experiment. […]
# 2) Thyroid stimulating antibodies in the serum of hyperthyroid mice were analysed by measuring cyclic adenosine monophosphate (cAMP) generation in Chinese hamster ovary (CHO) cells JP2626 expressing the human TSHR (kindly provided by Dr. Gilbert Vassart, Brussels, Belgium). […]
# [3] = test system: TSHR-overexpressing CHO cells JP2626; experiment: ex vivo TSHR-dependent cAMP stimulation in test cells; type: cell-based, human; conditions: 100 μg/ml test substance, anti-TSHR-antibody positive samples
# Protocol: In FIG. 8 the effects of peptides on anti-TSHR antibody titers (A) and on cAMP stimulation in TSHR-expressing test cells (B) were studied ex vivo (anti-TSHR-antibody positive serum samples). Each measurement was carried out in 4 samples. Results are shown as % of untreated controls with standard errors of the means (SEM). Significance was tested by analysis of variance (ANOVA) between groups, followed by LSD post-hoc testing. **p<0.001, compared to controls
# To investigate effects on TSHR-dependent cAMP stimulation ex vivo, TSHR-overexpressing CHO cells JP2626 were prepared as described above. Then, 100 μg/ml peptide 829, peptide of the invention 836 or fusion protein TSHR-Fc were added to the JP2626 cells. After incubation for 2.5 hours at 37° C. the cAMP release in the medium was measured in duplicates by a competitive immunoassay ELISA (#EMSCAMPL, Thermo Fisher Scientific, Waltham, Mass., USA).
Compound,clinical findings / tolerability [1],maximum TSHR-dependent cAMP levels induced in test cells by mouse serum [2],cAMP-stimulating potency in TSHR-expressing test cells ex vivo [3],"anti-TSHR antibody titers in naive mice ([1]; 1 mg/kg IV monthly, 6 month observation period)","naive mice with anti-TSHR antibody titers above cut-off limit ([1]; 1 mg/kg IV, after 3 administrations)"
CC[C@H](C)[C@@H]1NC(=O)[C@H](C(C)C)NC(=O)[C@H]([C@@H](C)O)NC(=O)[C@H](CC(C)C)NC(=O)[C@H](Cc2ccc(O)cc2)NC(=O)[C@H](CCCCN)NC(=O)[C@H](CC(N)=O)NC(=O)[C@H](CCCCN)NC(=O)[C@H](CC(N)=O)NC(=O)[C@H](CC(C)C)NC(=O)[C@H](Cc2ccc(O)cc2)NC(=O)[C@H](C(C)C)NC(=O)[C@H](C)NC(=O)[C@H](CC(=O)O)NC(=O)[C@H](CC(C)C)NC(=O)[C@H](CCCCN)NC(=O)[C@H]([C@@H](C)O)NC(=O)CNC(=O)[C@H](CC(N)=O)NC(=O)[C@H](Cc2ccccc2)NC(=O)[C@H](C)NC(=O)[C@H](Cc2ccc(O)cc2)NC(=O)CNC(=O)[C@H](CC(=O)O)NC1=O [peptide 836] (cyclo(GYAFNGTKLDAVYLNKNKYLTVID)),no pathological clinical findings were observed,,,,
SPPCECHQEEDFRVTCKDIQRIPS [peptide 829],,not significantly different from controls,,,
"TSHR-Fc: fusion protein: first 289 amino acids of human TSH receptor (A-subunit), GGR linker and Fc portion of human IgG2",developed clinical signs of allergy immediately after 4 administrations,not affected,reduction of titer and activity,significantly (p<0.001) higher than in cyclic peptide-treated or vehicle-treated control mice,3 out of 6

# Source: patent US11459375B2, “Cyclic peptides for the treatment of Graves' disease” (advanceCOR GmbH, priority 2017, dated 2022)
